Holding throughout (test): growth of human tumour cells (NCI), 48 h
The subject of assay [1] is SK-MEL-2.
The subject of assay [2] is KM12.
Assay [3] concerns UACC-62.
Assay [4] has as its system MDA-MB-231.
Assay [5] concerns IGROV-1.
Assay [6] deals with EKVX.
Assay [7] concerns NCI-H460.
Assay [8] concerns NCI-H23.
Assay [9] relates to 786-0.
The test system of assay [10] is OVCAR-3.
For assay [11], the system named is HCT-15.
The subject of assay [12] is MDA-MB-435.
In assay [13] the test system is T47D.
The subject of assay [14] is CAKI-1.
Assay [15] concerns SF-539.
Assay [16] deals with SN12C.
The subject of assay [17] is SW-620.
Assay [18] deals with M14.
In assay [19] the test system is MDA-N.
Assay [20] has as its system LOX IMVI.

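1) Cells in 96-well plates. 2) Compound, 48 h, 5 concentrations. 3) Linear interpolation between surrounding doses. 4) Unreached endpoint = highest concentration. GI50 = concentration required for 50% inhibition of growth.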 Active and inactive are the calls of the source. No stated cut-off is given here; in the data, active = GI50 up to about 1.1 µM and inactive = higher.

With `Oc1ccc2ccccc2c1OCc1nnc(CCCCCCCCc2nnc(COc3c(O)ccc4ccccc34)n2Nc2ccccc2)n1Nc1ccccc1`, the GI50 is 18.2 µM (inactive) in assay [1]; 12.5 µM (inactive) in [2]; 0.855 µM (active) in assay [3]; 15.3 µM (inactive) in assay [4]; 7.05 µM (inactive) in [5]; 15.4 µM (inactive) in assay [6]. In addition, the GI50 in [7] was 2.7 µM (inactive); in assay [8], 9.29 µM (inactive); in [9] it was 21.5 µM (inactive); in assay [10] it was 12.9 µM (inactive); in [11], 16.5 µM; in assay [12], 2.43 µM (inactive). For the same molecule, the GI50 in assay [13] is 25.9 µM (inactive); in [14] it was 12.3 µM (inactive); in assay [15], 6.85 µM (inactive); in [16] it was 35.7 µM (inactive); in assay [17], 18 µM (inactive); in assay [18], 2.56 µM (inactive).

In the case of `C/C(=N/NC(=S)N1CCCCC1)c1cccc(/C(C)=N\NC(=S)N2CCCCC2)n1`, the GI50 in assay [1] is 2.1 µM (inactive); in assay [2] it was 2.33 µM (inactive); in [3] it was 2.42 µM (inactive); in [4], 1.31 µM (inactive); in assay [19], 1.51 µM (inactive); in assay [5] it was 1.94 µM (inactive). Moreover, the GI50 in [6] is 2.13 µM (inactive); in [7], 1.89 µM (inactive); in assay [8], 3.93 µM (inactive); in assay [9], 2.01 µM (inactive); in assay [10], 2.21 µM (inactive); in [20] it was 2.07 µM (inactive). Also, the GI50 is 1.66 µM in assay [11]; 1.92 µM (inactive) in [12]; 2.08 µM (inactive) in [14]; 1.92 µM (inactive) in assay [15]; 1.93 µM (inactive) in assay [16]; 3.15 µM (inactive) in [17]. Moreover, the GI50 in [18] is 1.94 µM (inactive).

Consider `CCC1(CCSC(=N)N)C(=O)NC(=O)NC1=O`, for which the GI50 in [1], in assay [2], in [3], in assay [4], in [19] and in assay [5] was > 100 µM (inactive) throughout. The GI50 in assay [6], in assay [7], in [8], in [9], in assay [10] and in [20] was > 100 µM (inactive) each time. The GI50 in assay [11] is more than 100 µM; in [12], > 100 µM (inactive); in assay [14], > 100 µM (inactive); in assay [15], > 100 µM (inactive); in assay [16], > 100 µM (inactive); in assay [17], > 100 µM (inactive). For the same molecule, the GI50 in assay [18] was > 100 µM (inactive).

Turning to `CN1CCC2(CC1)/C(=N/C1CCCCC1)NC(=O)N2c1ccccc1`, the GI50 in assay [2], in assay [3], in assay [4], in assay [5], in [6] and in assay [7] was > 100 µM (inactive) in each case. Besides, the GI50 is > 100 µM (inactive) in assay [8]; > 100 µM (inactive) in assay [9]; more than 100 µM in [11]; > 100 µM (inactive) in assay [13]; > 100 µM (inactive) in [16]; > 100 µM (inactive) in [17]. Also, the GI50 in assay [18] was > 100 µM (inactive).

On to `O=c1[nH]n(Cc2ccccc2Cl)c2ccccc12`, for which the GI50 in assay [1], in assay [2], in [3], in [4], in [19] and in assay [5] was > 100 µM (inactive) throughout. Also, the GI50 in assay [6] is > 100 µM (inactive); in [7], > 100 µM (inactive); in [8], > 100 µM (inactive); in assay [9], > 100 µM (inactive); in assay [10], 73.1 µM (inactive); in [20], > 100 µM (inactive). For the same molecule, the GI50 is more than 100 µM in assay [11]; > 100 µM (inactive) in assay [12]; > 100 µM (inactive) in [14]; > 100 µM (inactive) in [15]; > 100 µM (inactive) in [16]; > 100 µM (inactive) in assay [17]. Further, the GI50 in [18] was > 100 µM (inactive).

As to `O=[N+]([O-])/C=C/c1cn(CCCCCCCCCCCCn2cc(/C=C/[N+](=O)[O-])c3ccccc32)c2ccccc12`, the GI50 in [1], in assay [2], in assay [3], in assay [4], in assay [19] and in [5] was > 100 µM (inactive) in each case. In addition, the GI50 in assay [6], in [7], in [8], in assay [9], in assay [10] and in assay [20] was > 100 µM (inactive) in each case. Further, the GI50 in [11] is more than 100 µM; in assay [12], > 100 µM (inactive); in assay [14], > 100 µM (inactive); in assay [15] it was > 100 µM (inactive); in assay [16] it was > 100 µM (inactive); in assay [17], > 100 µM (inactive). Besides, in [18], the GI50 is > 100 µM (inactive).

`O=C1[C@@H]2[C@@H](c3ccccc3)[C@]2(Cl)C(=O)[C@H]2[C@H](c3ccccc3)[C@@]12Cl`: the GI50 in assay [1], in [2], in [3], in assay [4], in assay [5] and in assay [6] was > 100 µM (inactive) throughout. Also, the GI50 in assay [7] is > 100 µM (inactive); in [8], > 100 µM (inactive); in assay [9], > 100 µM (inactive); in assay [10], > 100 µM (inactive); in [20], > 100 µM (inactive); in assay [11], more than 100 µM. The GI50 in [12], in assay [13], in assay [14], in [15], in assay [16] and in [17] was > 100 µM (inactive) throughout. In addition, in [18], the GI50 was > 100 µM (inactive).

On to `CC12CCC(C(=O)O1)C(C)(C)O2` (stereo not given), for which the GI50 in assay [1], in [2], in assay [3], in assay [4], in assay [19] and in assay [5] was > 100 µM (inactive) throughout. Moreover, the GI50 in [6], in assay [7], in assay [8], in assay [9], in assay [10] and in [20] was > 100 µM (inactive) each time. The GI50 in assay [11] is more than 100 µM; in assay [12] it was > 100 µM (inactive); in assay [14] it was > 100 µM (inactive); in [15], > 100 µM (inactive); in [16] it was > 100 µM (inactive); in [17] it was > 100 µM (inactive). For the same molecule, the GI50 in assay [18] was > 100 µM (inactive).

These data come from ChEMBL document CHEMBL1201862, “PubChem BioAssay data set” (2004).
